The source made the active and inactive calls. The calls are words filed in the database; no cut-off is given here. Where a SMILES comes first, the peptide text is derived from it. Bridges are numbered along the chain shown (N, C = ends). [ ]: non-standard residue; d: D form. The star is where a group is joined. X1 = CC[C@H](C)CCCCC(=O)*; Dab = NCC[C@H](N)C(=O)O

As usually defined, the MIC is the least concentration at which growth counts as inhibited.

Data set [1] is described as follows: Toxicity in Balb/c mouse assessed as change in liver co-efficient at 20 mg/kg, ip measured after 7 days. The format is organism-based. The settings on record: in vivo, 168 h, time 7 day.
A short description of data set [2]: Toxicity in Balb/c mouse assessed as spleen atrophy at 20 mg/kg, ip measured after 7 days. The format is organism-based. The settings on record: in vivo, 168 h, time 7 day.
Data set [3] is described as follows: Toxicity in Balb/c mouse assessed as kidney atrophy at 20 mg/kg, ip measured after 7 days. The format is organism-based. Conditions: in vivo, 168 h, time 7 day.
Data set [4] can be described thus: Toxicity in Balb/c mouse assessed as spleen pigmentation at 20 mg/kg, ip measured after 7 days. In kind it is organism-based. The settings on record: in vivo, 168 h, time 7 day.
A short description of data set [5]: Toxicity in Balb/c mouse assessed as kidney pigmentation at 20 mg/kg, ip measured after 7 days. Conditions: in vivo, 168 h, time 7 day. The format is organism-based.
The nature of data set [6]: Toxicity in Balb/c mouse assessed as change in serum ALT level at 20 mg/kg, ip measured after 7 days. The settings on record: in vivo, 168 h, time 7 day. In kind it is organism-based.
Data set [7] is described as follows: Toxicity in Balb/c mouse assessed as change in serum AST level at 20 mg/kg, ip measured after 7 days. The format is organism-based. The settings on record: in vivo, 168 h, time 7 day.
A short description of data set [8]: Toxicity in Balb/c mouse assessed as change in serum BUN level at 20 mg/kg, ip measured after 7 days. The format is organism-based. The settings on record: in vivo, 168 h, time 7 day.
Data set [9] can be described thus: Toxicity in Balb/c mouse assessed as change in serum CREA level at 20 mg/kg, ip measured after 7 days. Conditions: in vivo, 168 h, time 7 day. The format is organism-based.
Data set [10] in a line: Toxicity in Balb/c mouse assessed as cell swelling in kidney at 20 mg/kg, ip measured after 7 days by H and E staining based analysis. The format is organism-based. The settings on record: in vivo, 168 h, time 7 day.
Data set [11] can be described thus: Toxicity in Balb/c mouse assessed as inflammatory cell infiltration in kidney at 20 mg/kg, ip measured after 7 days by H and E staining based analysis. The format is organism-based. Conditions: in vivo, 168 h, time 7 day.
The nature of data set [12]: Toxicity in Balb/c mouse assessed as cell swelling in liver at 20 mg/kg, ip measured after 7 days by H and E staining based analysis. The format is organism-based. Conditions: in vivo, 168 h, time 7 day.
A short description of data set [13]: Toxicity in Balb/c mouse assessed as inflammatory cell infiltration in liver at 20 mg/kg, ip measured after 7 days by H and E staining based analysis. The format is organism-based. Conditions: in vivo, 168 h, time 7 day.
The nature of data set [14]: Toxicity in Balb/c mouse assessed as cell swelling in lung at 20 mg/kg, ip measured after 7 days by H and E staining based analysis. The format is organism-based. The settings on record: in vivo, 168 h, time 7 day.
A short description of data set [15]: Toxicity in Balb/c mouse assessed as cell swelling in spleen at 20 mg/kg, ip measured after 7 days by H and E staining based analysis. In kind it is organism-based. The settings on record: in vivo, 168 h, time 7 day.
The test system of data set [16] is Staphylococcus aureus. The data set is described as follows: Antibacterial activity against Staphylococcus aureus ATCC 25923 incubated for 18 to 24 hrs by broth microdilution method. Conditions: time 18-24 hrs. The format is functional. A general note: Broth dilution looks for growth in wells or tubes with falling amounts of substance.
The test system of data set [17] is Staphylococcus aureus. The data set is described as follows: Antibacterial activity against Staphylococcus aureus ATCC 29213 incubated for 18 to 24 hrs by broth microdilution method. In kind it is functional. The settings on record: time 18-24 hrs.
The test system of data set [18] is Staphylococcus aureus. Kind of data set: Antibacterial activity against methicillin-resistant Staphylococcus aureus ATCC 33591 incubated for 18 to 24 hrs by broth microdilution method. In kind it is functional. The settings on record: time 18-24 hrs.
Data set [19] has as its system Staphylococcus epidermidis. The data set is described as follows: Antibacterial activity against Staphylococcus epidermidis ATCC 12228 incubated for 18 to 24 hrs by broth microdilution method. The format is functional. Conditions: time 18-24 hrs.
The subject of a further data set is Enterococcus faecalis. The data set is described as follows: Antibacterial activity against Enterococcus faecalis ATCC 29212 incubated for 18 to 24 hrs by broth microdilution method. The format is functional. The settings on record: time 18-24 hrs.
Data set [20] relates to Staphylococcus aureus. The data set is described as follows: Induction of drug resistance in methicillin-resistant Staphylococcus aureus ATCC 33591 at sub-MIC measured after 4 passages. The format is functional, organism-based.
Data set [21] relates to Staphylococcus aureus. Kind of data set: Induction of drug resistance in methicillin-resistant Staphylococcus aureus ATCC 33591 assessed as fold increase in MIC at sub-MIC measured after 8 passages relative to control. The format is functional.
In data set [22] the test system is Staphylococcus aureus. Kind of data set: Induction of drug resistance in Staphylococcus aureus ATCC 25923 at sub-MIC measured after 2 passages. The format is functional, organism-based.
Data set [23] deals with Staphylococcus aureus. Kind of data set: Induction of drug resistance in Staphylococcus aureus ATCC 25923 assessed as fold increase in MIC at sub-MIC measured after 7 passages relative to control. In kind it is functional.
In data set [24] the test system is Staphylococcus aureus. Kind of data set: Antibacterial activity against drug-resistant Staphylococcus aureus ATCC 25923 incubated for 18 to 24 hrs. In kind it is functional. Conditions: time 18-24 hrs.
The test system of data set [25] is Staphylococcus aureus. Kind of data set: Antibacterial activity against ciprofloxacin-resistant Staphylococcus aureus ATCC 25923 incubated for 18 to 24 hrs. In kind it is functional. The settings on record: time 18-24 hrs.
Data set [26] relates to Staphylococcus aureus. Kind of data set: Antibacterial activity against polymyxin B-resistant Staphylococcus aureus ATCC 25923 incubated for 18 to 24 hrs. In kind it is functional. Conditions: time 18-24 hrs.
The test system of data set [27] is Staphylococcus aureus. Kind of data set: Antibacterial activity against drug-resistant methicillin-resistant Staphylococcus aureus ATCC 33591 incubated for 18 to 24 hrs. Conditions: time 18-24 hrs. In kind it is functional.
Data set [28] concerns Staphylococcus aureus. The data set is described as follows: Antibacterial activity against ciprofloxacin-resistant methicillin-resistant Staphylococcus aureus ATCC 33591 incubated for 18 to 24 hrs. In kind it is functional. The settings on record: time 18-24 hrs.
For data set [29], the system named is Staphylococcus aureus. The data set is described as follows: Antibacterial activity against polymyxin B-resistant methicillin-resistant Staphylococcus aureus ATCC 33591 incubated for 18 to 24 hrs. The format is functional. The settings on record: time 18-24 hrs.

Take `CC(C)CCCCC(=O)N[C@@H](CCN)C(=O)N[C@H](C(=O)N[C@@H](CCN)C(=O)N[C@H]1CCNC(=O)[C@H]([C@@H](C)O)NC(=O)[C@H](CCN)NC(=O)[C@H](CCN)NC(=O)[C@H](CC(C)C)NC(=O)[C@@H](Cc2ccccc2)NC(=O)[C@H](CCN)NC1=O)[C@@H](C)O.CC[C@H](C)CCCCC(=O)N[C@@H](CCN)C(=O)N[C@H](C(=O)N[C@@H](CCN)C(=O)N[C@H]1CCNC(=O)[C@H]([C@@H](C)O)NC(=O)[C@H](CCN)NC(=O)[C@H](CCN)NC(=O)[C@H](CC(C)C)NC(=O)[C@@H](Cc2ccccc2)NC(=O)[C@H](CCN)NC1=O)[C@@H](C)O` (X1-[Dab]T[Dab][Dab][Dab][dF]L[Dab][Dab]T; lactam 4-C): the Activity entry is on record as “Toxic” in data set [1]; “Toxic” in data set [2]; “Toxic” in data set [3]; “Toxic” in data set [4]; “Toxic” in [5]; “Non-toxic” in [6]. In addition, the Activity result in data set [7] is recorded as “Non-toxic”; in data set [8], “Non-toxic”; in [9] it was “Toxic”; in [10], “Toxic”; in data set [11] it was “Toxic”; in [12], “Toxic”. The Activity result in data set [13], in data set [14] and in [15] was “Toxic” throughout.
As to `CNC(C)[C@@H]1CC[C@@H](N)[C@@H](O[C@H]2[C@H](O)[C@@H](O[C@H]3OC[C@](C)(O)[C@H](NC)[C@H]3O)[C@H](N)C[C@@H]2N)O1.CN[C@@H]1[C@@H](O)[C@@H](O[C@@H]2[C@@H](O)[C@H](O[C@H]3O[C@H](C(C)N)CC[C@H]3N)[C@@H](N)C[C@H]2N)OC[C@]1(C)O.CN[C@@H]1[C@@H](O)[C@@H](O[C@@H]2[C@@H](O)[C@H](O[C@H]3O[C@H](CN)CC[C@H]3N)[C@@H](N)C[C@H]2N)OC[C@]1(C)O` (stereo not given in full), the MIC is 16 µM against Staphylococcus aureus [16]; 16 µM against Staphylococcus aureus [17]; 128 µM against Staphylococcus aureus [18]; 1 µM in [19]; 16 µM in the data set on Enterococcus faecalis; 128 µM with Staphylococcus aureus [24]. In addition, the MIC is 128 µM with Staphylococcus aureus [25]; 128 µM in the data set with Staphylococcus aureus [26]; 128 µM with Staphylococcus aureus [27]; > 128 µM against Staphylococcus aureus [28]; > 128 µM in the data set on Staphylococcus aureus [29]. Moreover, the result in the data set on Staphylococcus aureus [20] and with Staphylococcus aureus [22] was Active. For the same compound, the entries for the “fold change (FC)” value in the data set with Staphylococcus aureus [21] and with Staphylococcus aureus [23] were 256 and 64, respectively.

Source of the values: ChEMBL document CHEMBL6114969, “Ultra-short lipopeptides containing d-amino acid exhibiting excellent stability and antibacterial activity against gram-positive bacteria” (Eur J Med Chem, 2025).
